The target in test [1] is ER (Homo sapiens (Human), UniProt P03372). The test can be described thus: In-cell western blot analysis of relative ER percentage (Compounds B1-B278). To be noted: ER degradation, 16 hours, read-out: ICW DC50. The format is cell-based. The essentials: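 In-cell western: after 16 h compound exposure (0.5% DMSO final), fixed and permeabilized cells are probed with anti-ER plus anti-GAPDH and near-infrared secondaries. Relative ER percentage compares treated wells against untreated and DMSO wells taken as 100%; seeding 40,000 or 10,000 cells/well.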
ER, sequence (P03372 whole entry): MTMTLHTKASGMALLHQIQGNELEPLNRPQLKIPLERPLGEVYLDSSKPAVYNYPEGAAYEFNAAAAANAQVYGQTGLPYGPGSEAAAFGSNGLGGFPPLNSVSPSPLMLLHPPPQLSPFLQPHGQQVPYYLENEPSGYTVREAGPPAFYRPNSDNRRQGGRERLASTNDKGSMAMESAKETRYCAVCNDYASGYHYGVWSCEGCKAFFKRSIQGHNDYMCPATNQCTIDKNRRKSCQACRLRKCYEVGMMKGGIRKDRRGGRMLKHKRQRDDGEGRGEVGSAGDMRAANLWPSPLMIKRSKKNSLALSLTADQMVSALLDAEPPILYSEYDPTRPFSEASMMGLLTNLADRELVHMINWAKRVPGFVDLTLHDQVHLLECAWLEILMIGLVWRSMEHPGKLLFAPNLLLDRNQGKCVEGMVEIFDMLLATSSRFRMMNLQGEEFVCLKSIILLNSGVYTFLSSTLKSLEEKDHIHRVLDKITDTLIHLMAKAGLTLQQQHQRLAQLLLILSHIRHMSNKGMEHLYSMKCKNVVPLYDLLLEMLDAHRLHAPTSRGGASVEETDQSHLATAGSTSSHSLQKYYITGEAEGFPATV

The nature of test [2]: Cell growth assay (WST-8) (Compounds B1-B278). The format is cell-based. Particulars: T47D cell line, WST-8, 4 days, read-out: Cell Growth Inhibition in T47D cell line IC50. Put shortly:
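Read-out is WST-8 absorbance at 450 nm (2.5 h, 37° C) as a fraction of vehicle control, from three separate repeats. Compound exposure lasted 4 days, starting one day after plating 1500 cells/well.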
Background: Tetrazolium dyes change colour on reduction, which living cells bring about.

Among the data in patent US20260007681A1, “INDOLE DERIVATIVES AS ESTROGEN RECEPTOR DEGRADERS” (REGENTS OF THE UNIVERSITY OF MICHIGAN, priority 2022, published 2026) are DC50 and IC50 values, retold here.

SMILES strings stand for the structures. Read-outs that look alike come from different tables or passages of the source.

By DC50 is commonly meant the concentration giving 50% degradation. The term IC50 denotes the concentration at which inhibition is half-maximal. Take `C[C@@H]1Cc2c([nH]c3ccccc23)[C@@H](c2cnc(N3CC4(CCC(CN5CCN6c7ccc8c(c7OC[C@H]6C5)CN(C5CCC(=O)NC5=O)C8=O)CC4)C3)nc2)N1CC(F)F` (stereo partly drawn) [Compound B183, 3-((R)-7-((2-(5-((1R,3R)-2-(2,2-difluoroethyl)-3-methyl-2,3,4,9-tetrahydro-1H-pyrido[3,4-b]indol-1-yl)pyrimidin-2-yl)-2-azaspiro[3.5]nonan-7-yl)methyl)-1-oxo-1,3,5,5a,6,7,8,9-octahydro-2H-pyrazino[1′,2′:4,5][1,4]oxazino[2,3-e]isoindol-2-yl)piperidine-2,6-dione]: in test [1], the DC50 is less than 10 nM. In addition, the IC50 in test [2] (96 h) lay within 1 to 10 nM.
For `C[C@@H]1Cc2c([nH]c3ccccc23)[C@@H](c2cnc(N3CCC(CN4CCN5c6ccc7c(c6OC[C@@H]5C4)CN(C4CCC(=O)NC4=O)C7=O)CC3)nc2)N1CC(C)(C)F` (stereo partly drawn) [Compound B258, 3-((S)-7-((1-(5-((1R,3R)-2-(2-fluoro-2-methylpropyl)-3-methyl-2,3,4,9-tetrahydro-1H-pyrido[3,4-b]indol-1-yl)pyrimidin-2-yl)piperidin-4-yl)methyl)-1-oxo-1,3,5,5a,6,7,8,9-octahydro-2H-pyrazino[1′,2′:4,5][1,4]oxazino[2,3-e]isoindol-2-yl)piperidine-2,6-dione], in that order: more than 100 nM and less than 1 nM.
Take `C[C@@H]1Cc2c([nH]c3ccccc23)[C@@H](c2cnc(N3CC4(CCC(CN5CCN6c7ccc8c(c7OC[C@H]6C5)CN(C5CCC(=O)NC5=O)C8=O)CC4)C3)nc2)N1CC1(F)CC1` (stereo partly drawn) [Compound B260, 3-((R)-7-((2-(5-((1R,3R)-2-((1-fluorocyclopropyl)methyl)-3-methyl-2,3,4,9-tetrahydro-1H-pyrido[3,4-b]indol-1-yl)pyrimidin-2-yl)-2-azaspiro[3.5]nonan-7-yl)methyl)-1-oxo-1,3,5,5a,6,7,8,9-octahydro-2H-pyrazino[1′,2′:4,5][1,4]oxazino[2,3-e]isoindol-2-yl)piperidine-2,6-dione]: the DC50 in test [1] lay within 10 to 100 nM. Further, in test [2] (96 h), the IC50 lay within 1 to 10 nM.
For `C[C@@H]1Cc2c([nH]c3ccccc23)[C@@H](c2cnc(N3CCC4(CC3)CC(CN3CCN5c6ccc7c(c6OC[C@H]5C3)CN(C3CCC(=O)NC3=O)C7=O)C4)nc2)N1CC1(F)CC1` (stereo partly drawn) [Compound B261, 3-((R)-7-((7-(5-((1R,3R)-2-((1-fluorocyclopropyl)methyl)-3-methyl-2,3,4,9-tetrahydro-1H-pyrido[3,4-b]indol-1-yl)pyrimidin-2-yl)-7-azaspiro[3.5]nonan-2-yl)methyl)-1-oxo-1,3,5,5a,6,7,8,9-octahydro-2H-pyrazino[1′,2′:4,5][1,4]oxazino[2,3-e]isoindol-2-yl)piperidine-2,6-dione], in that order: 10 to 100 nM and 1 to 10 nM.
On the same counts, the results for `C[C@@H]1Cc2c([nH]c3ccccc23)[C@@H](c2cnc(N3CCC4(CC3)CC(CN3CCC5(CC3)COc3c5ccc5c3CN(C3CCC(=O)NC3=O)C5=O)C4)nc2)N1CC(F)F` (stereo partly drawn) [Compound B262, 3-(1′-((7-(5-((1R,3R)-2-(2,2-difluoroethyl)-3-methyl-2,3,4,9-tetrahydro-1H-pyrido[3,4-b]indol-1-yl)pyrimidin-2-yl)-7-azaspiro[3.5]nonan-2-yl)methyl)-6-oxo-6,8-dihydro-2H,7H-spiro[furo[2,3-e]isoindole-3,4′-piperidin]-7-yl)piperidine-2,6-dione] are 10 to 100 nM and less than 1 nM.
For `C[C@@H]1Cc2c([nH]c3ccccc23)[C@@H](c2cnc(N3CC4(CCC(CN5CCN6c7ccc8c(c7OC[C@@H]6C5)CN(C5CCC(=O)NC5=O)C8=O)CC4)C3)nc2)N1CC(F)F` (stereo partly drawn) [Compound B263, 3-((S)-7-((2-(5-((1R,3R)-2-(2,2-difluoroethyl)-3-methyl-2,3,4,9-tetrahydro-1H-pyrido[3,4-b]indol-1-yl)pyrimidin-2-yl)-2-azaspiro[3.5]nonan-7-yl)methyl)-1-oxo-1,3,5,5a,6,7,8,9-octahydro-2H-pyrazino[1′,2′:4,5][1,4]oxazino[2,3-e]isoindol-2-yl)piperidine-2,6-dione], in that order: 10 to 100 nM and 1 to 10 nM.
For `C[C@@H]1Cc2c([nH]c3ccccc23)[C@@H](c2cnc(N3CCC4(CC3)CC(CN3CCN5c6ccc7c(c6OC[C@@H]5C3)CN(C3CCC(=O)NC3=O)C7=O)C4)nc2)N1CC(F)F` (stereo partly drawn) [Compound B264, 3-((S)-7-((7-(5-((1R,3R)-2-(2,2-difluoroethyl)-3-methyl-2,3,4,9-tetrahydro-1H-pyrido[3,4-b]indol-1-yl)pyrimidin-2-yl)-7-azaspiro[3.5]nonan-2-yl)methyl)-1-oxo-1,3,5,5a,6,7,8,9-octahydro-2H-pyrazino[1′,2′:4,5][1,4]oxazino[2,3-e]isoindol-2-yl)piperidine-2,6-dione], the DC50 in test [1] lay in the range of 10 to 100 nM. The IC50 in test [2] (96 h) fell in the range of 1 to 10 nM.
For `C[C@@H]1Cc2c([nH]c3ccccc23)[C@@H](c2c(F)cc(N3CCC4(CC3)CC(CN3CCN5c6ccc7c(c6OC[C@H]5C3)CN(C3CCC(=O)NC3=O)C7=O)CO4)cc2F)N1CC(F)(F)CO` (stereo partly drawn) [Compound B266, 3-((5aR)-7-((8-(4-((1R,3R)-2-(2,2-difluoro-3-hydroxypropyl)-3-methyl-2,3,4,9-tetrahydro-1H-pyrido[3,4-b]indol-1-yl)-3,5-difluorophenyl)-1-oxa-8-azaspiro[4.5]decan-3-yl)methyl)-1-oxo-1,3,5,5a,6,7,8,9-octahydro-2H-pyrazino[1′,2′:4,5][1,4]oxazino[2,3-e]isoindol-2-yl)piperidine-2,6-dione], in that order: 10 to 100 nM and 1 to 10 nM.
For `C[C@@H]1CC2c3ccccc3NC2[C@@H](c2c(F)cc(N3CCC4(CC3)CC(CN3CCN5c6cc7c(cc6OC[C@H]5C3)C(=O)N(C3CCC(=O)NC3=O)C7)CO4)cc2F)N1CC(F)(F)CO` (stereo partly drawn) [Compound B267, 3-((4aR)-3-((8-(4-((1R,3R)-2-(2,2-difluoro-3-hydroxypropyl)-3-methyl-2,3,4,4a,9,9a-hexahydro-1H-pyrido[3,4-b]indol-1-yl)-3,5-difluorophenyl)-1-oxa-8-azaspiro[4.5]decan-3-yl)methyl)-8-oxo-1,2,3,4,4a,5,8,10-octahydro-9H-pyrazino[1′,2′:4,5][1,4]oxazino[2,3-f]isoindol-9-yl)piperidine-2,6-dione], in that order: more than 100 nM and more than 10 nM.
For `C[C@@H]1Cc2c([nH]c3ccccc23)[C@@H](c2ccc(N3CCC4(CC3)CC(CN3CCN5c6ccc7c(c6OC[C@H]5C3)CN(C3CCC(=O)NC3=O)C7=O)CO4)cn2)N1CC(F)(F)F` (stereo partly drawn) [Compound B268, (3S)-3-((5aR)-7-((8-(6-((1S,3R)-3-methyl-2-(2,2,2-trifluoroethyl)-2,3,4,9-tetrahydro-1H-pyrido[3,4-b]indol-1-yl)pyridin-3-yl)-1-oxa-8-azaspiro[4.5]dccan-3-yl)methyl)-1-oxo-1,3,5,5a,6,7,8,9-octahydro-2H-pyrazino[1′,2′:4,5][1,4]oxazino[2,3-e]isoindol-2-yl)piperidine-2,6-dione], in that order: 10 to 100 nM and 1 to 10 nM.
Turning to `C[C@@H]1Cc2c([nH]c3ccccc23)[C@@H](c2ccc(N3CCC4(CC3)CC(CN3CCN5c6cc7c(cc6OC[C@@H]5C3)C(=O)N(C3CCC(=O)NC3=O)C7)CO4)cn2)N1CC(F)(F)F` (stereo partly drawn) [Compound B269, 3-((4aS)-3-((8-(6-((1S,3R)-3-methyl-2-(2,2,2-trifluoroethyl)-2,3,4,9-tetrahydro-1H-pyrido[3,4-b]indol-1-yl)pyridin-3-yl)-1-oxa-8-azaspiro[4.5]decan-3-yl)methyl)-8-oxo-1,2,3,4,4a,5,8,10-octahydro-9H-pyrazino[1′,2′:4,5][1,4]oxazino[2,3-f]isoindol-9-yl)piperidine-2,6-dione], the 50% degradation concentration (DC50) in test [1] lay in the range of 10 to 100 nM. For the same compound, in test [2], the IC50 lay within 1 to 10 nM.
Consider `C[C@@H]1Cc2c([nH]c3ccccc23)[C@@H](c2c(F)cc(N3CCC4(CC3)OCC(CN3CCN5c6cc7c(cc6OC[C@@H]5C3)C(=O)N(C3CCC(=O)NC3=O)C7)CO4)cc2F)N1CC(F)(F)CO` (stereo partly drawn) [Compound B270, 3-((S)-3-((9-(4-((1R,3R)-2-(2,2-difluoro-3-hydroxypropyl)-3-methyl-2,3,4,9-tetrahydro-1H-pyrido[3,4-b]indol-1-yl)-3,5-difluorophenyl)-1,5-dioxa-9-azaspiro[5.5]undecan-3-yl)methyl)-8-oxo-1,2,3,4,4a,5,8,10-octahydro-9H-pyrazino[1′,2′:4,5][1,4]oxazino[2,3-f]isoindol-9-yl)piperidine-2,6-dione], for which the DC50 in test [1] was in the range of 10 to 100 nM. In addition, the IC50 in test [2] (96 h) was less than 1 nM.
For `COc1cc(N2CCC3(CC2)OCC(CN2CCN4c5ccc6c(c5OC[C@@H]4C2)CN([C@@H]2CCC(=O)NC2=O)C6=O)CO3)ccc1[C@@H]1c2[nH]c3ccccc3c2C[C@@H](C)N1CC(F)F` [Compound B271, (R)-3-((S)-7-((9-(4-((1R,3R)-2-(2,2-difluoroethyl)-3-methyl-2,3,4,9-tetrahydro-1H-pyrido[3,4-b]indol-1-yl)-3-methoxyphenyl)-1,5-dioxa-9-azaspiro[5.5]undecan-3-yl)methyl)-1-oxo-1,3,5,5a,6,7,8,9-octahydro-2H-pyrazino[1′,2′:4,5][1,4]oxazino[2,3-e]isoindol-2-yl)piperidine-2,6-dione], in that order: 10 to 100 nM and less than 1 nM.
